Patent publication US5874472A, “Aminoacid derivatives as no synthase inhibitors” (Glaxo Wellcome Inc., priority 1993, dated 1999)

Experiments:
Format in all cases: biochemical
human brain NOS = target: T1, human brain NOS (Homo sapiens, UniProt P29475); assay: Inhibition of human brain NOS (citrulline formation); settings: Schmidt et al. 1991 procedure, 10 μM tetrahydrobiopterin included
T1 construct: Purification of NOS from human brain; from tissue; host or cells: frozen human brain; ammonium sulfate, 2',5' ADP-agarose, calmodulin-agarose
Experimental: Purification of NOS from human brain
Human brain NOS was prepared using variations of the procedures of Schmidt et al. (PNAS 88 365-369, 1991), Mayer et al. (Fed. Eur. Biochem. Soc. 288 187-191, 1991), and Bredt and Snyder, (PNAS 87 682-685, 1990). Briefly, frozen human brain (1050 gm) was homogenized in cold buffer A (50 mM HEPES, pH 7.5 (pH at RT) and 0.5 mM EDTA, 10 mM DTT, 3.6 L total volume) with a polytron. The mixture was centrifuged at 13,000 g for 1 hour and the supernatant was removed (about 2050 ml). To the supernatant, solid aimmonium sulfate (365 gm, about 30% of saturation) was added and stirred slowly for a total of 30 minutes. The precipitate was pelleted at 13,000 g for 30 minutes and the pellet was resuspended in ~400 mls of buffer A with 4 μM tetrahydrobiopterin, 1 μM FAD (Sigma), 1 μM FMN (Sigma). The solution was centrifuged at 41,000 g for 60 minutes. The supernatant was removed, frozen by pouring into liquid nitrogen, and stored overnight at -70° C. The mixture was thawed and passed through a 2',5' ADP-agarose column (0.4 g swelled in buffer A) at 4 ml/min. The column was washed with 100 ml buffer A, 200 ml buffer A with 500 mM NaCl, 100 ml Buffer A, then 30 ml buffer A with 5 mM NADPH. To the enzyme eluted from the column was added glycerol to 15%, CaCl2 to 1 mM, tetrahydrobiopterin to 10 μM, tween to 0.1% and FAD, FMN to 1 μM each. The enzyme was then passed through a 1 ml calmodulin-agarose column which had been equilibrated in Buffer A, 15% glycerol and 1 mM CaCl2. The column was washed with 15 ml Buffer A, 15% glycerol and 1 mM CaCl2, 15 ml of Buffer A, 15% glycerol and 5 mM EDTA, and then enzyme activity was eluted with 3 ml of Buffer A, 15% glycerol and 5 mM EDTA, 1 M NaCl. To the enzyme was added tetrahydrobiopterin to 10 μM, FAD and FMN to 1 μM, and tween to 0.1%. This solution was concentrated by centriprep-30 to a volume of approximately 500 μl. Human NOS was prepared completely analogously except the calmodulin-agarose column was not used. Enzyme activity was determined as described by Schmidt et al. 1991, except that 10 μM tetrahydrobiopterin was included in the assay.

human placental NOS = target: T2, human placental NOS (Homo sapiens, UniProt P29474); assay: Inhibition of human placental NOS (citrulline formation); settings: 1 μM L-[14C] arginine; pH 7.4; calmodulin, CaCl2
T2 construct: Purification of NOS from human placenta; from tissue; host or cells: fresh human placenta, amnion and chorion removed; ammonium sulfate and 2',5' ADP agarose purified
Experimental: It is noted that the NO synthase isolated from human placenta most probably represents the endothelial constitutive isoenzyme.
Purification of NOS from human placenta.
Amion and chorion were removed from fresh placenta, which was then rinsed with 0.9% NaCl. The tissue was homogenized in a Waring blender in 3 volumes of HEDS buffer (20 mM Hepes pH 7.8, 0.1 mM EDTA, 5 mM DTT, 0.2M sucrose) plus 0.1 mM PMSF.
The homogenate was filtered through cheesecloth and then centrifuged at 1000 g for 20 min. The supernatant was recentrifuged at 27500 g for 30 min. Solid ammonium sulfate was added to the supernatant to give 32% saturation. Precipitated protein was pelleted at 25,000 g and then redissolved in a minimal volume of HEDS buffer plus 0.1 mM PMSF, 10 μg/ml leupeptin and soybean trypsin inhibitor, and 1 μg/ml pepstatin. The redissolved pellet was centrigued at 15000 g for 10 min. To the supernatant was added 1/20 volume of 2',5' ADP agarose resin (Sigma), and the slurry was mixed slowly overnight. In morning, slurry was packed into a column. The resin was sequentially washed with HEDS, 0.5M NaCl in HEDS, HEDS, and then NOS was eluted with 10 mM NADPH in HEDS. The enzyme could be concentrated by ultrafiltration and quick frozen and stored at -70° C. without loss in activity for at least 6 months.
Assay for human placental NOS
(§1) NOS was assayed for the formation of citrulline following the procedure of Schmidt et al (PNAS 88 365-369, 1991) with these modifications: 20 mM Hepes, pH 7.4, 10 μg/ml calmodulin, 2.5 mM CaCl2 2.5 mM DTT, 125 μM NADPH 10 μM H4 Biopterin, 0.5 mg/ml BSA, and 1 μM L-[^14 C] arginine (New England Nuclear). Linearity of NOS-catalyzed rate was confirmed prior to kinetic studies that used single time point determination of rate.

inducible human NOS = target: T3, inducible human NOS (Homo sapiens, UniProt P35228); assay: Inhibition of inducible human NOS (citrulline formation), enzyme from cytokine-induced DLD-1 cells; settings: NOS from cytokine-induced DLD-1 cells; 1 μM L-[14C] arginine; pH 7.4; 10 μM FAD, no calmodulin/CaCl2
T3 construct: Purification of NOS cytokine-induced human colorectal adenocarcinoma DLD-1 cells; host or cells: DLD-1 cells induced with interferon-gamma, interleukin-6, tumor necrosis factor and interleukin-1beta; 2',5' ADP Sepharose purified
Experimental: as §1
Purification of NOS cytokine-induced human colorectal adenocarcinoma DLD-1 cells.
DLD-1 (ATCC No. CCL 221) were grown at 37° C., 5% CO2 in RPMI 1640 medium supplemented with L- glutamin, penicillin, streptomycin, and 10% heat-inactivated fetal bovine serum. Cells were grown to confluency and then the following cocktail of cytokines were added: 100 units/ml interferon-gamma, 200 units/ml interleukin-6, 10 ng/ml tumor necrosis factor, and 0.5 ng/ml interieukin-1β. At 10-24 hr post-induction, cells were harvested by scraping and washed with phosphate-buffered saline. Pelleted cells were stored at -70° C. Purification of the induced NOS was performed at 4° C. Crude extract was prepared by three cycles of freeze/thawing cells in TDGB (20 mM tris pH 7.5, 10% glycerol, 1 mM DTT, 2 μM tetrahydrobiopterin). Extract was applied directly onto a column of 2',5' ADP sepharse (Pharmacia). Resin was sequentially washed with TDGB, 0.5 M NaCl in TDGB, TDGB. NOS was eluted with 2 mM NADPH in TDGB. BSA was immediately added to give a final concentration of 1 mg/ml. NOS could be quick frozen and stored at -70° C. without loss in activity for at least 2 months.
Assay for inducible human NOs.
The formation of citrulline was assayed as described above except that 10 μM FAD was included and calmodulin and CaCl2 were excluded from the assay mix.

## 4-Acetamido-DL-phenylalanine [Compound 15]
Human brain NOS
  Ki: > 50 µM
Human placental NOS
  Ki: > 50 µM
Inducible human NOS
  Ki: > 50 µM

## CNC(=N)Nc1ccc(CC(N)C(=O)O)s1 (racemic) [Compound 1, 3-(5-N'-methylguanidino-2-thienyl)-DL-alanine]
Human brain NOS
  Ki: ≤ 50 µM
Human placental NOS
  Ki: ≤ 10 µM
Inducible human NOS
  Ki: > 50 µM

## N=C(N)Nc1ccc(CC(N)C(=O)O)s1 (racemic) [Compound 2, 3-(5-Guanidino-2-thienyl)-DL-alanine]
Human brain NOS
  Ki: ≤ 10 µM
Human placental NOS
  Ki: ≤ 50 µM
Inducible human NOS
  Ki: ≤ 50 µM

## NC(N)=Nc1ccccc1CC(N)C(=O)O (racemic) [Compound 3, 2-Guanidino-DL-phenylalanine]
Human brain NOS
  Ki: ≤ 0.5 µM
Human placental NOS
  Ki: ≤ 0.5 µM
Inducible human NOS
  Ki: ≤ 10 µM

## CCSC(=N)Nc1ccc(CC(N)C(=O)O)s1 (racemic) [Compound 4, 3-(5-S-ethylisothioureido-2-thienyl)-DL-alanine]
Human brain NOS
  Ki: ≤ 50 µM
Human placental NOS
  Ki: ≤ 10 µM
Inducible human NOS
  Ki: > 50 µM

## N=C(Nc1ccc(CC(N)C(=O)O)s1)NC1CC1 (racemic) [Compound 5, 3-(5-N'-cyclopropylguanidino-2-thienyl)-DL-alanine]
Human brain NOS
  Ki: ≤ 10 µM
Human placental NOS
  Ki: ≤ 10 µM
Inducible human NOS
  Ki: > 50 µM

## C=CCNC(=N)Nc1ccc(CC(N)C(=O)O)s1 (racemic) [Compound 6, 3-(5-N'-allylguanidino-2-thienyl)-DL-alanine]
Human brain NOS
  Ki: ≤ 10 µM
Human placental NOS
  Ki: ≤ 10 µM
Inducible human NOS
  Ki: ≤ 10 µM

## NC(=S)Nc1ccccc1CC(N)C(=O)O (racemic) [Compound 7, 2-thioureido-DL-phenylalanine]
Human brain NOS
  Ki: ≤ 10 µM
Human placental NOS
  Ki: ≤ 10 µM
Inducible human NOS
  Ki: ≤ 10 µM

## CSC(=N)Nc1ccccc1CC(N)C(=O)O (racemic) [Compound 8, 2-(S-methylisothioureido)-DL-phenylalanine]
Human brain NOS
  Ki: ≤ 1 µM
Human placental NOS
  Ki: ≤ 1 µM
Inducible human NOS
  Ki: ≤ 10 µM

## CCSC(=N)Nc1ccccc1CC(N)C(=O)O (racemic) [Compound 9, 2-(S-ethylisothioureido)-DL-phenylalanine]
Human brain NOS
  Ki: ≤ 0.5 µM
Human placental NOS
  Ki: ≤ 0.5 µM
Inducible human NOS
  Ki: ≤ 1 µM

## C/N=C(/N)Nc1ccccc1CC(N)C(=O)O (racemic) [Compound 10, 2-(N'-methylguanidino)-DL-phenylalanine]
Human brain NOS
  Ki: ≤ 0.5 µM
Human placental NOS
  Ki: ≤ 0.5 µM
Inducible human NOS
  Ki: ≤ 1 µM

## NC(=NC1CC1)Nc1ccccc1CC(N)C(=O)O (racemic) [Compound 11, 2-(N'-cyclopropylguanidino)-DL-phenylalanine]
Human brain NOS
  Ki: ≤ 1 µM
Human placental NOS
  Ki: ≤ 0.5 µM
Inducible human NOS
  Ki: ≤ 1 µM

## N=C(N)Nc1cccc(CC(N)C(=O)O)c1 (racemic) [Compound 12, 3-guanidino-DL-phenylalanine]
Human brain NOS
  Ki: ≤ 50 µM
Human placental NOS
  Ki: ≤ 50 µM
Inducible human NOS
  Ki: > 50 µM

## N=C(N)Nc1ccc(CC(N)C(=O)O)cc1 (racemic) [Compound 13, 4-Guanidino-DL-phenylalanine]
Human brain NOS
  Ki: > 50 µM
Human placental NOS
  Ki: > 50 µM
Inducible human NOS
  Ki: > 50 µM

## CC(=N)Nc1cccc(CC(N)C(=O)O)c1 (racemic) [Compound 14, 3-acetamidino-DL-phenylalanine]
Human brain NOS
  Ki: > 50 µM
Human placental NOS
  Ki: > 50 µM
Inducible human NOS
  Ki: > 50 µM

## CNC(N)=Nc1cccc(CC(N)C(=O)O)c1 (racemic) [Compound 16, 3-N-methylguanidino-DL-phenylalanine]
Human brain NOS
  Ki: ≤ 10 µM
Human placental NOS
  Ki: ≤ 10 µM
Inducible human NOS
  Ki: > 50 µM

## CNC(=N)Nc1ccc(CC(N)C(=O)O)cc1 (racemic) [Compound 17, 4-N-methylguanidino-DL-phenylalanine]
Human brain NOS
  Ki: ≤ 50 µM
Human placental NOS
  Ki: ≤ 50 µM
Inducible human NOS
  Ki: > 50 µM

## CC(=N)Nc1ccc(CC(N)C(=O)O)s1 (racemic) [Compound 18, 3-(5-(1-iminoethyl)amino)-2-thienyl)-DL-alanine]
Human brain NOS
  Ki: ≤ 50 µM
Human placental NOS
  Ki: ≤ 50 µM
Inducible human NOS
  Ki: ≤ 10 µM

## CC(=N)Nc1ccccc1CC(N)C(=O)O (racemic) [Compound 19, 2-((1-iminoethyl)amino)-DL-phenylalanine]
Human placental NOS
  Ki: ≤ 10 µM
Inducible human NOS
  Ki: ≤ 10 µM
